Data taken from US9382197B2, “Substituted hydroxamic acids and uses thereof” (Millennium Pharmaceuticals, Inc., priority 2010, dated 2016).

Molecular target: T1, purified human HDAC6 (Homo sapiens, UniProt Q9UBN7)
T1 construct: purchased BPS Bioscience 5006
T1 sequence (Q9UBN7 1-1215): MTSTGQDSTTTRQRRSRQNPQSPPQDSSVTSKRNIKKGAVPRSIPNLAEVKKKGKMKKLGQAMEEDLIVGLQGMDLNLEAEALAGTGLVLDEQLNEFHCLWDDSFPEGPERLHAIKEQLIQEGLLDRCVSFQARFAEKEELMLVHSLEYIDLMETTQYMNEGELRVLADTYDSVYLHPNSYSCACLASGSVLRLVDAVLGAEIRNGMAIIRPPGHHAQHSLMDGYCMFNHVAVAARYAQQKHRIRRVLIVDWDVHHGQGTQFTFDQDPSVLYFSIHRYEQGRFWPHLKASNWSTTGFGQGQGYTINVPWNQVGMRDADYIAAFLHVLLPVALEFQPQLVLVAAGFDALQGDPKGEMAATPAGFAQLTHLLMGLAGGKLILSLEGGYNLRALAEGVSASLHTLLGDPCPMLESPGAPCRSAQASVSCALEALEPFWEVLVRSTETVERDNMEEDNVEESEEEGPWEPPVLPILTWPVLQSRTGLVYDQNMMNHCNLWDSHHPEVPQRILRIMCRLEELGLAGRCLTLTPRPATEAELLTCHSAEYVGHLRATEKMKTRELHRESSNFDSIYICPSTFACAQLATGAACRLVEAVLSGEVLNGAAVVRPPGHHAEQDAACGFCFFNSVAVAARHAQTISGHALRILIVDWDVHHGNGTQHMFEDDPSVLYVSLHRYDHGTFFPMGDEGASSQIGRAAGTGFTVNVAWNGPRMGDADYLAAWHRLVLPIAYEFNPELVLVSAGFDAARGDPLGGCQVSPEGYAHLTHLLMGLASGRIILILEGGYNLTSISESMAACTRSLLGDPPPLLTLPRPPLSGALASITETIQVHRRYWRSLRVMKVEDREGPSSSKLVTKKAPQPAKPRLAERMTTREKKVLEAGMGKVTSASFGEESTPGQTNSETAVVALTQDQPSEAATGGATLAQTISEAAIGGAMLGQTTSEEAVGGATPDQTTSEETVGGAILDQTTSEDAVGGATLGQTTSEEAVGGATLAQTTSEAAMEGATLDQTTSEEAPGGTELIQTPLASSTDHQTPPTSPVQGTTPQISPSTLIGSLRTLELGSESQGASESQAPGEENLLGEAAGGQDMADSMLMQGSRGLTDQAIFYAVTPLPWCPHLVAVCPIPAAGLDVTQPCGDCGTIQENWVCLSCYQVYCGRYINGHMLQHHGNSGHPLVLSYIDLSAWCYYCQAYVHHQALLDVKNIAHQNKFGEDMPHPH
Assay: HDAC6 Enzyme Assay
Assay type: biochemical
Method: To measure the inhibition of HDAC6 activity, purified human HDAC6 (BPS Bioscience; Cat. No. 5006) is incubated with substrate Ac-Arg-Gly-Lys(Ac)-AMC peptide (Bachem Biosciences; Cat. No. 1-1925) for 1 hour at 30° C. in the presence of test compounds or vehicle DMSO control. The reaction is stopped with the HDAC inhibitor trichostatin A (Sigma; Cat. No. T8552) and the amount of Arg-Gly-Lys-AMC generated is quantitated by digestion with trypsin (Sigma; Cat. No. T1426) and subsequent measurement of the amount of AMC released using a fluorescent plate reader (Pherastar; BMG Technologies) set at Ex 340 nm and Em 460 nm. Concentration response curves are generated by calculating the fluorescence increase in test compound-treated samples relative to DMSO-treated controls, and enzyme inhibition (IC50) values are determined from those curves.

[1] = purified human HDAC6, substrate Ac-Arg-Gly-Lys(Ac)-AMC, 1 hour at 30° C., reported as bins
[2] = bin: greater than 500 nM and less than 1 μM (lower bound in nM, upper bound in μM)

IC50 [1] | Structure (SMILES) | also measured
100 to 500 nM | COc1ccc(C(=O)NC(c2ccc(C(=O)NO)cc2)C(C)(C)C)cc1 (centres unmarked) [Compound I-352, N-(1-{4-[(hydroxyamino)carbonyl]phenyl}-2,2-dimethylpropyl)-4-methoxybenzamide] | –
< 100 nM | CC(C)C(NC(=O)c1ccc(-c2ccc(F)cc2)cc1)c1ccc(C(=O)NO)cc1 (centres unmarked) [Compound I-143, 4′-fluoro-N-(1-{4-[(hydroxyamino)carbonyl]phenyl}-2-methylpropyl)biphenyl-4-carboxamide] | –
< 100 nM | CC(NC(=O)C12CC3CC(CC(C3)C1)C2)c1ccc(C(=O)NO)cc1 (centres unmarked) [Compound I-3, N-(1-{4-[(hydroxyamino)carbonyl]phenyl}ethyl)adamantane-1-carboxamide] | –
– | Cc1noc(C)c1C(=O)NC(c1ccc(C(=O)NO)cc1)C(C)C (centres unmarked) [Compound I-238, N-(1-{4-[(hydroxyamino)carbonyl]phenyl}-2-methylpropyl)-3,5-dimethylisoxazole-4-carboxamide] | IC50 (bin: greater than 1 μM): > 1000 nM
< 100 nM | CC(NC(=O)Nc1ccc(C(C)(C)C)cc1)c1ccc(C(=O)NO)cc1 (centres unmarked) [Compound I-140, 4-[1-({[(4-tert-butylphenyl)amino]carbonyl}amino)ethyl]-N-hydroxybenzamide] | –
< 100 nM | CC(NC(=O)Nc1ccccc1F)c1ccc(C(=O)NO)cc1 (centres unmarked) [Compound I-74, 4-[1-({[(2-fluorophenyl)amino]carbonyl}amino)ethyl]-N-hydroxybenzamide] | –
– | CC(NC(=O)Cc1csc2ccc(Cl)cc12)c1cccc(C(=O)NO)c1 (centres unmarked) [Compound I-13, 3-(1-{[(5-chloro-1-benzothien-3-yl)acetyl]amino}ethyl)-N-hydroxybenzamide] | IC50 [2]: 500 to 1000 nM
< 100 nM | CC(NC(=O)C(C)(C)c1ccc(Cl)cc1)c1ccc(C(=O)NO)cc1 (centres unmarked) [Compound I-378, 4-(1-{[2-(4-chlorophenyl)-2-methylpropanoyl]amino}ethyl)-N-hydroxybenzamide] | –
< 100 nM | CC(NC(=O)Nc1ccc2c(c1)OCO2)c1ccc(C(=O)NO)cc1 (centres unmarked) [Compound I-71, 4-(1-{[(1,3-benzodioxol-5-ylamino)carbonyl]amino}ethyl)-N-hydroxybenzamide] | –
< 100 nM | COc1ccc(C)cc1NC(=O)NC(C)c1ccc(C(=O)NO)cc1 (centres unmarked) [Compound I-253, N-hydroxy-4-[1-({[(2-methoxy-5-methylphenyl)amino]carbonyl}amino)ethyl]benzamide] | –
< 100 nM | CC(NC(=O)C1(C)CC1)c1ccc(C(=O)NO)cc1 (centres unmarked) [Compound I-154, N-hydroxy-4-(1-{[(1-methylcyclopropyl)carbonyl]amino}ethyl)benzamide] | –
< 100 nM | COc1ccc(C(=O)N[C@@H](c2ccc(C(=O)NO)cc2)C(C)C)cc1 [Compound I-19, N-((1R)-1-{4-[(hydroxyamino)carbonyl]phenyl}-2-methylpropyl)-4-methoxybenzamide] | –
< 100 nM | C[C@@H](NC(=O)c1ccc(-c2ccccc2)cc1)c1ccc(C(=O)NO)cc1 [Compound I-92, N-((1R)-1-{4-[(hydroxyamino)carbonyl]phenyl}ethyl)biphenyl-4-carboxamide] | –
– | Cc1cc(C(=O)NO)ccc1C(C)NC(=O)C12CC3CC(CC(C3)C1)C2 (centres unmarked) [Compound I-491, N-(1-{4-[(hydroxyamino)carbonyl]-2-methylphenyl}ethyl)adamantane-1-carboxamide] | IC50 (bin: greater than 1 μM): > 1000 nM
< 100 nM | CC(NC(=O)Nc1cccc(C(F)(F)F)c1)c1ccc(C(=O)NO)cc1 (centres unmarked) [Compound I-371, N-hydroxy-4-{1-[({[3-(trifluoromethyl)phenyl]amino}carbonyl)amino]ethyl}benzamide] | –
– | CC(C)(C)C(NC(=O)c1ccc(C(F)(F)F)cc1)c1ccc(C(=O)NO)cc1 (centres unmarked) [Compound I-303, 4-(2,2-dimethyl-1-{[4-(trifluoromethyl)benzoyl]amino}propyl)-N-hydroxybenzamide] | IC50 [2]: 500 to 1000 nM

IC50 [1] | Structure (SMILES) | also measured
< 100 nM | Cc1ccc(NC(=O)NC(C)c2ccc(C(=O)NO)cc2)cc1F (centres unmarked) [Compound I-120, 4-[1-({[(3-fluoro-4-methylphenyl)amino]carbonyl}amino)ethyl]-N-hydroxybenzamide] | –
< 100 nM | CC(C)[C@@H](NC(=O)NCCc1ccccc1)c1ccc(C(=O)NO)cc1 [Compound I-522, N-hydroxy-4-[(1R)-2-methyl-1-({[(2-phenylethyl)amino]carbonyl}amino)propyl]benzamide] | –
< 100 nM | CC(NC(=O)C1CCCCCC1)c1ccc(C(=O)NO)cc1 (centres unmarked) [Compound I-213, N-(1-{4-[(hydroxyamino)carbonyl]phenyl}ethyl)cycloheptanecarboxamide] | –
< 100 nM | CC(C)[C@@H](NC(=O)c1cc2ccccc2[nH]1)c1ccc(C(=O)NO)cc1 [Compound I-68, N-((1R)-1-{4-[(hydroxyamino)carbonyl]phenyl}-2-methylpropyl)-1H-indole-2-carboxamide] | –
– | C[C@@H](NS(=O)(=O)c1ccc(C(F)(F)F)cc1)c1cccc(C(=O)NO)c1 [Compound I-403, N-hydroxy-3-[(1R)-1-({[4-(trifluoromethyl)phenyl]sulfonyl}amino)ethyl]benzamide] | IC50 (bin: greater than 1 μM): > 1000 nM
100 to 500 nM | CC(C)C(NC(=O)c1ccc(C(C)(C)C)cc1)c1ccc(C(=O)NO)cc1 (centres unmarked) [Compound I-192, 4-tert-butyl-N-(1-{4-[(hydroxyamino)carbonyl]phenyl}-2-methylpropyl)benzamide] | –
< 100 nM | O=C(NO)c1ccc([C@H](NC(=O)c2ccc(-c3ccccc3)cc2)C(F)(F)F)cc1 [Compound I-296, N-((1S)-2,2,2-trifluoro-1-{4-[(hydroxyamino)carbonyl]phenyl}ethyl)biphenyl-4-carboxamide] | –
– | CC(C)(C)C(NC(=O)Cc1csc2ccc(Cl)cc12)c1ccc(C(=O)NO)cc1 (centres unmarked) [Compound I-345, 4-(1-{[(5-chloro-1-benzothien-3-yl)acetyl]amino}-2,2-dimethylpropyl)-N-hydroxybenzamide] | IC50 (bin: greater than 1 μM): > 1000 nM
– | Cc1noc(C)c1C(=O)NC(c1ccc(C(=O)NO)cc1)C(C)(C)C (centres unmarked) [Compound I-200, N-(1-{4-[(hydroxyamino)carbonyl]phenyl}-2,2-dimethylpropyl)-3,5-dimethylisoxazole-4-carboxamide] | IC50 (bin: greater than 1 μM): > 1000 nM
< 100 nM | CC(NC(=O)NCCc1ccccc1)c1ccc(C(=O)NO)cc1 (centres unmarked) [Compound I-210, N-hydroxy-4-[1-({[(2-phenylethyl)amino]carbonyl}amino)ethyl]benzamide] | –
100 to 500 nM | COc1ccc(S(=O)(=O)NC(C)c2ccc(C(=O)NO)cc2)cc1 (centres unmarked) [Compound I-47, N-hydroxy-4-(1-{[(4-methoxyphenyl)sulfonyl]amino}ethyl)benzamide] | –
< 100 nM | CCC[C@@H](NC(=O)c1cc2ccccc2s1)c1ccc(C(=O)NO)cc1 [Compound I-299, N-((1R)-1-{4-[(hydroxyamino)carbonyl]phenyl}butyl)-1-benzothiophene-2-carboxamide] | –
< 100 nM | Cc1ccc(F)c(C(=O)NC(C)c2ccc(C(=O)NO)cc2)c1 (centres unmarked) [Compound I-8, 2-fluoro-N-(1-{4-[(hydroxyamino)carbonyl]phenyl}ethyl)-5-methylbenzamide] | –
< 100 nM | C[C@H](NC(=O)c1cccn1C)c1ccc(C(=O)NO)cc1 [Compound I-25, N-((1S)-1-{4-[(hydroxyamino)carbonyl]phenyl}ethyl)-1-methyl-1H-pyrrole-2-carboxamide] | –
100 to 500 nM | CCc1cc(C(=O)NC(c2ccc(C(=O)NO)cc2)C(C)(C)C)n(C)n1 (centres unmarked) [Compound I-318, 3-ethyl-N-(1-{4-[(hydroxyamino)carbonyl]phenyl}-2,2-dimethylpropyl)-1-methyl-1H-pyrazole-5-carboxamide] | –
– | CC(C)C(NC(=O)c1ccc(-c2ccccc2)cc1)c1cccc(C(=O)NO)c1 (centres unmarked) [Compound I-323, N-(1-{3-[(hydroxyamino)carbonyl]phenyl}-2-methylpropyl)biphenyl-4-carboxamide] | IC50 (bin: greater than 1 μM): > 1000 nM
